Measurements published in the NIST ThermoML archive (doi:10.1021/je900387e).
Numbers after ± are expanded uncertainties.

Test: xn = mol fraction of the nth substance listed
Settings: 308.2 K, Liquid, Pycnometric method

Cn1ccnc1 [1-methylimidazole] + O=C=O
Settings | mass density [kg/m3]
7790 kPa, x1 = 0.0247 | 745 ± 4
7860 kPa, x1 = 0.0102 | 638 ± 4
7870 kPa, x1 = 0.0102 | 640 ± 4
7900 kPa, x1 = 0.0102 | 646 ± 4
7940 kPa, x1 = 0.0102 | 652 ± 4
7950 kPa, x1 = 0.0102 | 655 ± 4
7970 kPa, x1 = 0.0247 | 755 ± 4
7980 kPa, x1 = 0.0102 | 661 ± 4
8020 kPa, x1 = 0.0102 | 667 ± 4
8080 kPa, x1 = 0.0102 | 676 ± 4
8160 kPa, x1 = 0.0102 | 686 ± 4
8200 kPa, x1 = 0.0247 | 766 ± 4
8260 kPa, x1 = 0.0102 | 696 ± 4
8380 kPa, x1 = 0.0102 | 706 ± 4
8470 kPa, x1 = 0.0247 | 777 ± 4
8520 kPa, x1 = 0.0102 | 716 ± 4
8590 kPa, x1 = 0.0487 | 838 ± 4
8680 kPa, x1 = 0.0487 | 841 ± 4
8690 kPa, x1 = 0.0102 | 727 ± 4
8790 kPa, x1 = 0.0487 | 844 ± 4
8820 kPa, x1 = 0.0247 | 790 ± 4
8910 kPa, x1 = 0.0102 | 738 ± 4
8910 kPa, x1 = 0.0487 | 847 ± 4
9040 kPa, x1 = 0.0487 | 849 ± 4
9150 kPa, x1 = 0.0102 | 750 ± 4
9150 kPa, x1 = 0.0487 | 852 ± 4
9250 kPa, x1 = 0.0247 | 802 ± 4
9290 kPa, x1 = 0.0487 | 853 ± 4
9440 kPa, x1 = 0.0102 | 761 ± 4
9450 kPa, x1 = 0.0487 | 858 ± 4
9600 kPa, x1 = 0.0487 | 860 ± 4
9750 kPa, x1 = 0.0247 | 815 ± 4
9750 kPa, x1 = 0.0487 | 863 ± 4
9800 kPa, x1 = 0.0102 | 773 ± 4
9850 kPa, x1 = 0.1024 | 937 ± 4
9920 kPa, x1 = 0.0487 | 866 ± 4
10030 kPa, x1 = 0.1024 | 939 ± 4
10130 kPa, x1 = 0.0247 | 824 ± 4
10200 kPa, x1 = 0.0102 | 786 ± 4
10360 kPa, x1 = 0.1024 | 942 ± 4
10560 kPa, x1 = 0.0247 | 833 ± 4
10630 kPa, x1 = 0.1024 | 945 ± 4
10700 kPa, x1 = 0.0102 | 799 ± 4
11000 kPa, x1 = 0.1024 | 948 ± 4
11070 kPa, x1 = 0.0247 | 842 ± 4
11250 kPa, x1 = 0.0102 | 812 ± 4
11310 kPa, x1 = 0.1024 | 951 ± 4
11620 kPa, x1 = 0.0247 | 851 ± 4
11710 kPa, x1 = 0.1024 | 954 ± 4
11920 kPa, x1 = 0.0102 | 826 ± 4
12010 kPa, x1 = 0.1024 | 956 ± 4
12240 kPa, x1 = 0.0247 | 860 ± 4
12460 kPa, x1 = 0.1024 | 960 ± 4
12590 kPa, x1 = 0.0247 | 865 ± 4
12610 kPa, x1 = 0.0102 | 840 ± 4
12820 kPa, x1 = 0.1024 | 963 ± 4
12940 kPa, x1 = 0.0247 | 870 ± 4
13250 kPa, x1 = 0.1024 | 966 ± 4
13310 kPa, x1 = 0.0247 | 875 ± 4
13440 kPa, x1 = 0.0102 | 859 ± 4
13690 kPa, x1 = 0.1024 | 969 ± 4
13720 kPa, x1 = 0.0247 | 880 ± 4
14140 kPa, x1 = 0.0247 | 885 ± 4
14140 kPa, x1 = 0.1024 | 972 ± 4
14560 kPa, x1 = 0.0102 | 875 ± 4
14570 kPa, x1 = 0.1024 | 975 ± 4
14610 kPa, x1 = 0.0247 | 890 ± 4
14990 kPa, x1 = 0.0102 | 880 ± 4
15060 kPa, x1 = 0.0247 | 895 ± 4
15080 kPa, x1 = 0.1024 | 978 ± 4
15430 kPa, x1 = 0.0102 | 886 ± 4
